# Source: patent US20090143438A1, “Novel Pyridine Derivative Having Anti-Helicobacter Pylori Activity” (Arigen Pharmaceuticals, Inc., priority 2006, published 2009)
# Where two headings read alike, the source gives them in different places.
# What was measured:
# H. pylori, ATCC 43504 = assay: Antibacterial power test, Columbia agar, MIC; format: cell-based, Helicobacter pylori; details: 37° C., pH 7.0, 3 days, read on 4th day; for MIC: Helicobacter pylori, ATCC43504, 72 h, read-out: MIC, in vitro anti-Helicobacter pylori activity
# Procedure: An in vitro test was performed in a Columbia agar medium using a standard strain of H. pylori, ATCC 43504. […] Each of the test objects was dissolved in a 1% DMSO solution. Furthermore, as antibiotic control drugs, ampicillin from the penicillin family (control drug 1), gentamycin from the aminoglycoside family (control drug 2), tetracycline from the tetracycline family (control drug 3), and ofloxacin from the new quinolone family (control drug 4) were used.
# H. pylori NCTC 11637 = assay: In vitro MIC test in Columbia agar, standard strain; format: cell-based, Helicobacter pylori; details: for MIC: Helicobacter pylori, NCTC11637, 72 h, standard strain NCTC 11637, 37° C., pH 7.0, 3 days
# Procedure: (§1) An in vitro test was performed in a Columbia agar medium using standard strains of H. pylori, NCTC 11637 and 11916, clinical isolates PT#1045482, PT#1045483 and PT#1045484, and ofloxacin- and roxithromycin-resistant, clinical isolates TY2, 4 and 5. Each of the test objects was dissolved in a 1% DMSO solution. Furthermore, as antibiotic control drugs, roxithromycin from the macrolide family and ofloxacin from the new quinolone family were used. The strains were cultured at 37° C. and pH 7.0 for 3 days, and on the 4th day, the minimum inhibitory concentrations (MIC, μg/ml) were determined.
# H. pylori NCTC 11916 = assay: as above; format: cell-based, Helicobacter pylori; details: for MIC: Helicobacter pylori, NCTC11916, 72 h, standard strain NCTC 11916, 37° C., pH 7.0, 3 days
# Procedure: as §1
# [1] = tested on: H. pylori clinical isolate PT#1045482; assay: In vitro MIC test in Columbia agar, clinical isolate; format: cell-based; details: Helicobacter pylori, 72 h, 37° C., pH 7.0, 3 days
# Procedure: as §1
# [2] = tested on: H. pylori clinical isolate PT#1045483; assay: as above; format: cell-based; details: Helicobacter pylori, 72 h, 37° C., pH 7.0, 3 days
# Procedure: as §1
# [3] = tested on: H. pylori clinical isolate PT#1045484; assay: as above; format: cell-based; details: Helicobacter pylori, 72 h, 37° C., pH 7.0, 3 days
# Procedure: as §1
# [4] = tested on: H. pylori ofloxacin- and roxithromycin-resistant clinical isolate TY2; assay: In vitro MIC test in Columbia agar, resistant clinical isolate; format: cell-based; details: Helicobacter pylori, 72 h; resistant strain TY2; 37° C., pH 7.0, 3 days
# Procedure: as §1
# [5] = tested on: H. pylori ofloxacin- and roxithromycin-resistant clinical isolate TY4; assay: as above; format: cell-based; details: Helicobacter pylori, 72 h; resistant strain TY4; 37° C., pH 7.0, 3 days
# Procedure: as §1
# [6] = tested on: H. pylori ofloxacin- and roxithromycin-resistant clinical isolate TY5; assay: as above; format: cell-based; details: Helicobacter pylori, 72 h; resistant strain TY5; 37° C., pH 7.0, 3 days
# Procedure: as §1
# [7] = tested on: Enterococcus faecalis (VRE, ATCC 51575); assay: In vitro antibacterial test against various bacteria, MIC; format: cell-based; details: 37° C., 20 to 48 hours
# Procedure: (§2) An in vitro antibacterial test for the compounds of Examples 1 to 6 against various bacteria was performed. As gram-negative bacteria, Escherichia coli (ATCC 10536, ATCC 25922), Klebsiella pneumonia (ATCC 10031), Proteus vulgaris (ATCC 13315), Pseudomonas aeruginosa (ATCC 9027), Salmonella typhimurium (ATCC 13311), and as gram-positive bacteria, Staphylococcus aureus, MRSA (ATCC 33591), Staphylococcus epidermidis (ATCC 12228), Streptococcus pneumonia (ATCC 6301), Mycobacterium ranae (ATCC 110) and Enterococcus faecalis (VRE, ATCC 51575) were used. The various bacteria were cultured at 37° C. for 20 to 48 hours by conventional methods, and the minimum inhibitory concentrations (MIC, μg/ml) were determined. Each of the test objects were dissolved in a 1% DMSO solution. Furthermore, as an antibiotic control drug, gentamycin (GEM) from the aminoglycoside family was used.
# [8] = tested on: Escherichia coli (ATCC 10536); assay: as above; format: cell-based; details: 20 to 48 hours
# Procedure: as §2
# [9] = tested on: Escherichia coli (ATCC 25922); assay: as above; format: cell-based; details: 20 to 48 hours
# Procedure: as §2
# [10] = tested on: Klebsiella pneumonia (ATCC 10031); assay: as above; format: cell-based; details: 20 to 48 hours
# Procedure: as §2
# [11] = tested on: Mycobacterium ranae (ATCC 110); assay: as above; format: cell-based; details: 20 to 48 hours
# Procedure: as §2
# [12] = tested on: Proteus vulgaris (ATCC 13315); assay: as above; format: cell-based; details: 20 to 48 hours
# Procedure: as §2
# [13] = tested on: Pseudomonas aeruginosa (ATCC 9027); assay: as above; format: cell-based; details: 20 to 48 hours
# Procedure: as §2
# [14] = tested on: Salmonella typhimurium (ATCC 13311); assay: as above; format: cell-based; details: 37° C., 20 to 48 hours
# Procedure: as §2
# [15] = tested on: Staphylococcus aureus, MRSA (ATCC 33591); assay: as above; format: cell-based; details: 37° C., 20 to 48 hours
# Procedure: as §2
# [16] = tested on: Staphylococcus epidermidis (ATCC 12228); assay: as above; format: cell-based; details: 20 to 48 hours
# Procedure: as §2
# [17] = tested on: Streptococcus pneumonia (ATCC 6301); assay: as above; format: cell-based; details: Streptococcus pneumoniae, ATCC6301, 37° C., 20 to 48 hours
# Procedure: as §2
# [18] = tested on: various gram-negative bacteria and gram-positive bacteria; assay: In vitro antibacterial test against various bacteria, overall statement; format: cell-based; details: bacteria of Table 4
# Procedure: as §2
# [19] = ATCC10536, 37° C., read-out: MIC
# [20] = ATCC25922, 37° C., read-out: MIC
# [21] = Klebsiella pneumoniae, ATCC10031, 37° C., read-out: MIC
# [22] = ATCC13315, 37° C., read-out: MIC
# [23] = ATCC9027, 37° C., read-out: MIC
# [24] = Salmonella enterica, read-out: MIC
# [25] = ATCC12228, 37° C., read-out: MIC
Compound,"MIC (H. pylori, ATCC 43504) [µg/mL]",MIC (H. pylori NCTC 11637) [µg/mL],MIC (H. pylori NCTC 11916) [µg/mL],MIC [1] [µg/mL],MIC [2] [µg/mL],MIC [3] [µg/mL],MIC [4] [µg/mL],MIC [5] [µg/mL],MIC [6] [µg/mL],MIC [7] [µg/mL],"MIC [8, 19] [µg/mL]","MIC [9, 20] [µg/mL]","MIC [10, 21] [µg/mL]","MIC ([11]; ATCC110, 37° C., read-out: MIC) [µg/mL]","MIC [12, 22] [µg/mL]","MIC [13, 23] [µg/mL]","MIC [14, 24] [µg/mL]",MIC ([15]; read-out: MIC) [µg/mL],"MIC [16, 25] [µg/mL]",MIC [17] [µg/mL],other results
"Cc1c(OCCCCCCCCO)ccnc1CSc1nc2ccccc2[nH]1 [Example 4, 2-[{4-(8-hydroxyoctyloxy)-3-methylpyridin-2-yl}methylthio]-1H-benzimidazole]",0.03,0.03,0.03,0.03,0.03,0.03,0.03,0.1,0.03,> 100,> 100,> 100,> 100,> 100,> 100,> 100,> 100,> 100,> 100,> 100,activity compared to the compounds (e) and (f) (H. pylori NCTC 11637; standard strain NCTC11637): 26.6 fold; activity compared to the compounds (e) and (f) (H. pylori NCTC 11916; standard strain NCTC11916): 52 fold
"Cc1c(OCCCCCCCCCO)ccnc1CSc1nc2ccccc2[nH]1 [Example 5, 2-[{4-(9-hydroxynonyloxy)-3-methylpyridin-2-yl}methylthio]-1H-benzimidazole]",0.1,0.1,0.1,0.2,0.1,0.1,0.1,0.3,0.2,> 100,> 100,> 100,> 100,> 100,> 100,> 100,> 100,> 100,> 100,> 100,–
"Cc1c(OCCCCCCCCCCO)ccnc1CSc1nc2ccccc2[nH]1 [Example 6, 2-[{4-(10-hydroxydecyloxy)-3-methylpyridin-2-yl}methylthio]-1H-benzimidazole]",0.3,0.3,0.2,0.3,0.3,0.3,0.3,0.3,0.3,> 100,> 100,> 100,> 100,> 100,> 100,> 100,> 100,> 100,> 100,> 100,–
"gentamycin [Control Drug 2 (Gentamycin), reference compound]",–,–,–,–,–,–,–,–,–,–,–,–,–,–,–,–,–,–,–,–,"MIC, in vitro anti-Helicobacter pylori activity (H. pylori, ATCC 43504): 0.3 µg/mL; MIC ([8]; 37° C.): 0.3 µg/mL; MIC ([9]; 37° C.): 1.0 µg/mL; MIC ([10]; 37° C.): 1.0 µg/mL; MIC ([11]; 37° C.): 0.3 µg/mL; MIC ([12]; 37° C.): 0.3 µg/mL; MIC ([13]; 37° C.): 0.3 µg/mL; MIC [14]: 1.0 µg/mL; MIC [15]: 1.0 µg/mL; MIC ([16]; 37° C.): 0.1 µg/mL; antibacterial action against various gram-negative and gram-positive bacteria (in words) [18]: strong antibacterial action"
